Several values for one entry are separate records, joined by “and”; a condition that tells them apart may be missing. Equal values may be shown once.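 Five concentrations, 48 hours, 96-well plates. GI50 = concentration required for 50% inhibition of growth. Definition used: TGI = concentration required for complete inhibition of growth.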
How the values were obtained:
Test in all cases: NCI anticancer screen, dose series, 48 h
[1] = system: NCI-H522 lung
[2] = system: PC-3 prostate
[3] = system: TK-10 renal
[4] = system: SF-295 CNS
[5] = system: UACC-62 melanoma
[6] = system: SF-539 CNS
[7] = system: A498 renal
[8] = system: NCI/ADR-RES ovarian
[9] = system: HCC-2998 colon
[10] = system: MOLT-4 leukemia

| Structure (SMILES) | GI50 [1] [µM] | TGI [1] [µM] | GI50 [2] [µM] | TGI [2] [µM] | GI50 [3] [µM] | TGI [3] [µM] | GI50 [4] | TGI [4] | GI50 [5] | TGI [5] | GI50 [6] [µM] | TGI [6] [µM] | GI50 [7] | TGI [7] | GI50 [8] | TGI [8] | GI50 [9] [µM] | TGI [9] [µM] | TGI [10] [µM] | GI50 [10] [µM] |
| --- | --- | --- | --- | --- | --- | --- | --- | --- | --- | --- | --- | --- | --- | --- | --- | --- | --- | --- | --- | --- |
| Cc1cn2c(=O)n(c1=O)Cc1ccccc1C2 | 43.4 | > 100 | > 100 | > 100 | > 100 | > 100 | > 100 µM | > 100 µM | 63.1 µM | > 100 µM | > 100 | > 100 | 35.1 µM | > 100 µM | > 100 µM | > 100 µM | > 100 | > 100 | – | – |
| CC1(C)N[P+]2(Nc3ccccc3O2)OC1=O (stereo not given) | – | – | – | > 100 | – | > 100 | – | > 100 µM | – | 64 µM | – | > 100 | – | > 100 µM | – | > 100 µM | – | > 100 | > 100 | – |
| CNC(=O)OCc1[nH]ccc2c(C)c3nc4ccc(OC)cc4c3cc12 | – | > 20.7 | – | – | – | > 79.1 | – | > 100 µM | – | > 56.7 µM | – | > 31.8 | – | 30.7 µM | – | – | – | > 53.5 | 3.89 | – |
| CC(=O)O[C@H]1CC[C@@]2(C)C(=CC[C@@H]3C2CC[C@]2(C)Nc4[nH]ncc4CC32)C1 (stereo not given in full) | – | – | – | – | – | > 100 | – | > 100 µM | – | 57.1 µM | – | 40.4 | – | > 100 µM | – | – | – | > 100 | 35.8 | – |
| O=C(O)c1ccc(C2C3C=CC(C3)C2[N+](=O)[O-])cc1 (stereo not given) | – | > 100 | – | – | – | > 100 | – | > 100 µM | – | > 100 µM | – | > 100 | – | > 100 µM | – | – | – | > 100 | > 100 | – |
| NC1=C(Cl)C(=O)c2ccccc2C1=O | – | 18.5 | – | 6 | – | 49 | – | 18.1 µM | – | 2.76 µM | – | 20.8 | – | 35.7 µM | – | – | – | 24.4 | 22.4 | – |
| COc1ccccc1NC(=O)C1=C(C)NC(C)=C(C(=O)Nc2ccccc2OC)C1c1cccc2c1OCO2 | – | – | – | – | – | > 100 | – | > 100 µM | – | > 100 µM | – | > 100 | – | > 100 µM | – | – | – | > 100 | > 100 | – |
| Cn1c(=O)oc2cc(C3CCC(=O)N3Cc3ccc(Cl)cc3)ccc21 (stereo not given) | – | > 100 | – | – | – | > 100 | – | > 100 µM | – | > 100 µM | – | > 100 | – | – | – | – | – | > 100 | > 100 | – |
| Nc1nc(SCCC/C=C/I)nc2c1ncn2C1OC(CO)C(O)C1O (stereo not given) | – | > 202 | – | – | – | > 202 | – | > 202 µM | – | > 202 µM | – | > 202 | – | > 202 µM | – | – | – | – | > 202 | – |
| COc1cc2c3c(n(CCCNCCNCCCN)c(=O)c2cc1OC)-c1cc2c(cc1C3=O)OCO2 | 0.575 | 2.86 | 13.2 | 56.3 | 7.92 | 27 | 2.79 µM | 17.4 µM | 1.87 µM | 8.18 µM | 8.55 | 23.6 | – | – | 21.1 µM | 94.6 µM | – | – | – | – |
| COC(=O)C1=Cc2c(cc(OC)c(OC)c2OC)[C@H](c2ccc(OC)c(OC)c2OC)C1C(=O)OC (stereo not given in full) | – | > 100 | – | – | – | > 100 | – | > 100 µM | – | > 100 µM | – | > 100 | – | > 100 µM | – | – | – | > 100 | > 100 | – |
| Clc1cc(Cl)cc(Nc2nc3ccccc3nc2-c2cccs2)c1 | – | – | – | – | – | 75.6 | – | 45.8 µM | – | – | – | > 100 | – | – | – | – | – | > 100 | > 100 | – |
| CN(CCN(C)C(=O)CCOS(C)(=O)=O)C(=O)CCOS(C)(=O)=O | – | > 100 | – | – | – | > 100 | – | > 100 µM | – | > 100 µM | – | > 100 | – | > 100 µM | – | – | – | > 100 | > 100 | – |
| CCCCCCCCCCCCCCCCn1cc[n+](Cc2ccccc2)c1C | 0.451 | 1.88 | – | – | 0.86 | 2.2 | 0.866 µM and 0.263 µM | 2.28 µM and 1.22 µM | 0.577 µM and 0.232 µM | 2.01 µM and 1.21 µM | 1.67 | 4.36 | 1.69 µM and 0.421 µM | 3.94 µM and 1.8 µM | 8.02 µM and 1.55 µM | 48.6 µM and 7.01 µM | 0.413 | 1.64 | > 100 | 2.46 |
| CCC[CH2][Sn]1([CH2]CCC)[O]C(=O)CN=Cc2ccccc2[O]1 | 0.0349 | 0.173 | – | – | 0.292 | 0.729 | 1.14 µM | 2.37 µM | 0.197 µM | 0.46 µM | 1.3 | > 100 | – | – | – | – | 0.525 | 1.81 | 0.75 | 0.212 |
| O=C(CCCn1ccnc1[N+](=O)[O-])NCCn1ccnc1[N+](=O)[O-] | – | > 100 | – | > 100 | – | > 100 | – | > 100 µM | – | > 100 µM | – | > 100 | – | – | – | > 100 µM | – | > 100 | > 100 | – |
| COc1cc(OC)cc(-c2cncn2-c2ccc(-c3nc4cc(OC)cc(OC)c4s3)cc2)c1 | 2.49 | > 100 | – | – | 16.8 | > 100 | 2.4 µM | 43.1 µM | 4.75 µM | > 100 µM | 5.76 | > 100 | 3.15 µM | > 100 µM | 2.58 µM | > 100 µM | > 100 | > 100 | – | – |
| COc1ccc(C(=O)CC(c2ccc(OC)c(OC)c2)c2c(O)c3ccccc3oc2=O)cc1OC (stereo not given) | – | > 100 | – | > 100 | – | > 100 | – | > 100 µM | – | > 100 µM | – | > 100 | – | – | – | > 100 µM | – | > 100 | > 100 | – |
| O=C(O)CCCNS(=O)(=O)c1ccc2ccccc2c1 | – | > 100 | – | – | – | > 100 | – | > 100 µM | – | > 100 µM | – | > 100 | – | > 100 µM | – | – | – | > 100 | > 100 | – |
| O=C1C=CC(=O)c2c1ncc1c2nc2sccn21 | 16 | 61.2 | 15.2 | 30.6 | 18.3 | 33.5 | 48.3 µM | > 100 µM | 21.8 µM | 45.2 µM | 12.4 | 42.4 | – | – | 29.3 µM | > 100 µM | 78.9 | > 100 | > 100 | 3.57 |
| CO/N=C(/COc1c(-c2ccccc2)oc2ccccc2c1=O)c1ccc(F)cc1 | 36.4 | > 100 | 31.5 | > 100 | 27.2 | 95.7 | 41.1 µM | > 100 µM | 96.1 µM | > 100 µM | 85.6 | > 100 | 61.2 µM | > 100 µM | 86.4 µM | > 100 µM | > 100 | > 100 | – | – |
